# Experimental data published in patent US7355074B2, “Compounds having aromatic rings and side-chain amide-functionality and a method for transporting monovalent anions across biological membranes using the same” (The University of Maryland, priority 2003, dated 2008).
# Legend:
# [1] = 1H NMR binding experiment in CDCl3 with n-Bu4-NCl
# Experimental: FIG. 7 illustrates a series of […] spectra (400 mHz, CDCl3, 22° C.) of calixarene tetrabutylamide in the presence of different species: (A) the compound alone (5 mm); (B) the compound with 1 equiv. of Bu4 NCl; (C) the compound after washing CDCl3 solution of the compound with an aqueous solution of 0.5 m HCl; (D) after washing CDCl3 solution of the compound with an aqueous solution of 0.5 M H2SO4.
# To obtain evidence for Cl^− binding by 2, ^1H NMR experiments were run in CDCl3 using n-Bu4-NCl and HCl as Cl^− sources. Anion receptors usually show chemical shift perturbation upon anion complexation, particularly for amide NH protons that hydrogen bond to the anion. […] Calix[4]arene tetrabutylamide 2 does, however, bind HCl. Thus, shaking a CDCl3 solution of 2 with aqueous HCl led to disappearance of the amide NH proton and a significant upfield shift of the […] protons (FIG. 4c).
# [2] = sodium picrate extraction in CDCl3 monitored by 1H NMR; assay type: binding
# Experimental: FIG. 9 ^1H NMR spectrum (400 MHz, CDCl3, 22° C.) of (A) calixarene octabutylamide (5 mM) in CDCl3, (B) the same compound after addition of 1 equiv. of NaPic. (C) the same compound after addition of 2 equiv. of NaPic.
# The secondary amide NH and the core aromatic ring framework, in this case the calix[4]arene framework, are essential for the HCl transport activity of 2. Calix[4]arene octabutylamide 3 was used as a negative control for tetrabutylamide 2, as the lack of amide NH protons in 3 would preclude Cl^− binding. Instead, 3 should be a cation ionophore, much like tetrakis(diethylcarbamoylmethoxy)-p-tert-butylcalix[4]arene-1,3-alt that coordinates cations in the solid-state and solution. To confirm that 3 binds Na^+, sodium picrate extraction in CDCl3 was monitored by ^1H NMR spectroscopy. Complexation of the salt by 3 was evident. Two distinct complexes were formed, corresponding to a 1:1 and a 2:1 Na^+:3 stoichiometry. The 1:1 complex was generated by adding 1 equiv of solid sodium picrate to a solution of 3. Binding this Na^+ led to a symmetry loss for 3, indicated by doubling of the ^1H NMR peaks. […] In contrast, sodium picrate extraction by calix[4]arene tetrabutylamide 2 was not detected by ^1H NMR spectroscopy.
# [3] = pH changes in liposomes experiencing a Cl- gradient (oligophenoxyacetamides); assay type: biochemical
# Experimental: FIG. 2B illustrates alkanization of the vesicular aqueous compartment upon application of compounds 1-6 to a suspension of NaCl-containing vesicles in isosmomolar Na2SO4 buffer. Concentration of compounds 1-6 in the vesicular suspension was 20 μm (4 mol %). Legend for traces denotes use of oligocompounds 1, 2, 3, 4, 5, 6.
# Liposome Preparation for Fluorimetric Assays. Egg yolk L-α-phosphatidylcholine (EYPC ethanol solution, […], 79 μmol) was dissolved in a CHCl3/MeOH mixture, the solution was evaporated under reduced pressure and the resulting thin film was dried under high vacuum for 2 h. The lipid film was hydrated in 1.2 mL of phosphate buffer (10 mM sodium phosphate, pH=6.4, 75-100 mM MnX, M=N^+, K^+, X=Cl^−, SO4^2−, n=1,2) containing 10 μM HPTS (pyranine, 8-hydroxypyrene-1,3,6-trisulfonic acid trisodium salt) for 40 min. During hydration, the suspension was submitted to 5 freeze-thaw cycle (liquid nitrogen, water at rt). The large multilamellar liposome suspension (1 mL) was submitted to high-pressure extrusion at rt (21 extrusions through a 0.1 μm polycarbonate membrane afforded a suspension of LUVs with an average diameter of 100 nm). The LUV suspension was separated from extravesicular dye by size exclusion chromatography (SEC) (stationary phase: Sephadex G-10, mobile phase: phosphate buffer) and diluted with the same phosphate buffer to give a stock solution with a lipid concentration of 11 mM (assuming 100% of lipid was incorporated into liposomes).
# (§1) Analysis of pH changes in the liposomes experiencing a CT gradient. a) Outwardly directed gradient of Cl:HPTS-loaded vesicles (100 μL of the stock solution), filled with a saline phosphate buffer (10 mM sodium phosphate, pH 6.4, 100 mM NaCl) were suspended in 1.9 mL of an isosmotic phosphate sulfate buffer (10 mM sodium phosphate, pH 6.0, 75 mM Na2SO4) and placed into a fluorimetric cell. The emission of HPTS at 510 nm was monitored with excitation wavelengths at 403 and 460 nm simultaneously. During the experiment, 20 μL of a 0-2 mM DMSO solution of the compound of interest was added through an injection port. Intravesicular pH values were obtained as described for pH-stat transport assays. At the end of experiment, the aqueous compartment of liposomes was equilibrated with extravesicular solution by lysis of liposomes with detergent (40 μL of 5% aqueous Triton X100). b) Inwardly directed gradient of Cl:HPTS-loaded vesicles (100 μL of the stock solution), filled with a isoosimomolar sulfate phosphate buffer (10 mM sodium phosphate, pH 6.0, 75 mM Na2SO4) were suspended in 1.9 mL of an isosmotic phosphate saline buffer (10 mM sodium phosphate, pH 6.4, 100 mM NaCl) and placed into a fluorimetric cell. Further analysis was conducted as described for the case of an outwardly directed gradient of […]. Analysis of the electrostatic potential on the surface of liposomes. LUVs (100 μL of stock solution, 100 mM KCl inside and outside or 75 mM Na2SO4 inside and outside) were suspended in 1.9 mL of 100 mM NaCl buffer containing 60 nM safranin O (a potential-sensitive dye). Safranin O emission was monitored at 580 nm with excitation at 520 nm. During the course of the experiment, 20 μL of a 0-0.12 mM DMSO solution of valinomycin or 0-2 mM of 3-8 DMSO solution was added. Experiments were completed by injection of 20 μL of 1 mM aqueous solution of the defect-inductive peptide melittin.
# [4] = liposome potential assay with safranin O; assay type: biochemical
# Experimental: FIG. 3 illustrates liposome potential assays. Suspension of EYPC LUVs in phosphate buffer was used (10 m M Nan H3-n PO4, n=1, 2, pH 6.4, 100 m M KCl or 75 m M Na2 H3-n PO4, n=1, 2, pH 6.4, 100 m M KCl or 75 m M NA2 SO4 inside and 100 m M NaCl, 60 nM safranin O, ex 480 nm, em 520 nm, outside). Legend for trace denotes the formation of potential in: —KCl vesicles upon application of valinmycin·Na2SO4 vesicles upon application of 3, —KCl vesicles upon application of 3, —Na2SO4 vesicles upon application of valinomycin.
# as §1
# [5] = 4 mol %, NaCl-loaded liposomes in Na2SO4 buffer
SMILES,binding of the naked Cl− anion [1],sodium picrate extraction [2],"pH gradient generated [3, 5]","time to reach the pH gradient [3, 5]","time the pH gradient remained stable ([3]; 4 mol %, until the liposomes were lysed)",relative ability to alter the pH in liposomes under a Cl− gradient ([3]; NaCl-loaded liposomes in Na2SO4 buffer),transport under inwardly directed Cl− gradient ([3]; sulfate-loaded liposomes suspended in Cl− buffer),"transmembrane potential formed ([4]; Na2SO4 inside, NaCl outside, safranin O outside, 1 mol %)","time to formation of the transmembrane potential ([4]; Na2SO4 inside, NaCl outside, 1 mol %)",ability to create a transmembrane potential ([4]; Na2SO4 vesicles in NaCl buffer (conditions of the trimer)),"magnitude of the transmembrane potential ([4]; inwardly directed Cl− gradient, compared with valinomycin in liposomes with 100 mM KCl inside, 100 mM NaCl outside)"
"CCCCNC(=O)COc1c2cccc1Cc1cccc(c1OCC(=O)NCCCC)Cc1cccc(c1OCC(=O)NCCCC)Cc1cccc(c1OCC(=O)NCCCC)C2 [calix[4]arene tetrabutylamide 2, Calix[4]arene tetrabutylamide]",does not bind strongly,not detected,–,–,–,–,–,–,–,–,–
"CCCCNC(=O)COc1ccccc1Cc1cccc(Cc2ccccc2OCC(=O)NCCCC)c1OCC(=O)NCCCC [trimer 3, Tris-(N-butyl-2-phenoxyacetamide)]",–,–,approximately are pH unit,≤ 1.5 minutes,5 minutes,most active compound in the series tested,transports both Cl^− and H^+ into sulfate-loaded liposomes,stable negative charge inside liposomes,≤ 2 min,created transmembrane potential,comparable to that generated by 0.12 mol % valinomycin
